Data on four compounds can be found in patent US7897641B2, “Composition for the prevention and/or treatment of the cytotoxic effects induced by the use of immunosuppressive agents” (Sigma-Tau Industrie Farmaceutiche Riunite S.p.A., priority 2000, dated 2011).

Read-outs that look alike come from different tables or passages of the source.

In data set [1] the test system is rats intoxicated with CCL4. Kind of data set: Protection against liver damage in rats intoxicated with CCl4. The note with it: treatment 300 mg/kg i.p. half an hour before CCl4; for Alanine aminotranferase activity (ALT): blood 24 h after CCl4 1 mL/kg of 20% solution, controls 12.5 ± 1.7; for Triglycerides: liver 24 h after CCl4, controls 6.5 ± 0.7. Format: in vivo, rat. On the procedure:
CCl4 was administered at the dose of 1 mL/kg of a 20% solution in olive oil according to the technique described by Bernacchi (Bernacchi A. G., Brit. J. Exp. Pathol., 61:505, 1980).
Twenty-four hours after administration of CCl4, alanine aminotransferase was assayed as an indicator of enzymatic liver damage in blood from the animals thus treated, according to the colorimetric method described by Reitman (Reitman S., Am. J. Clin. Pathol., 28:56, […]), whereas from the livers taken from the same animals triglycerides were extracted with methanol and chloroform and assayed according to the method described by Kleir (Kleir, J. Biochem. Clin. Bohenescov., 9:243, 1999). The livers were then fixed with Carnon fixative and, after embedding in paraplast, were stained with haematoxylin and eosin.

Data set [2] has as its system perfused rat kidneys. Kind of data set: Renal hypertension induced by cyclosporin-A or tacrolimus in perfused rat kidneys. Particulars: treatment 5 mg/L each; for inhibition at 5 µg/mL: Rattus norvegicus. The source says: (§1) Using the isolated rat kidney according to the technique described by Maack (Maack P., Kidney Int., 30:142, 1986) and Shure (Shure K. H., Delugers Arch., 35:4, 1975) and perfusing it with a solution containing cyclosporin-A, it is possible to detect the toxic reactions this substance induces at the renal level relating both to the renal cytomorphology, particularly at the tubular level, and to arteriolar and […] capillary vasoconstriction and the release of enzymes such as alanine aminopeptidase (AAP) and N-acetylglucosaminidase (NAG), the release of which is regarded as a sign of cell damage, as is the release of vasoactive substances such as histamine and endothelin-1.
(§2) In these tests a group of rats were used whose kidneys were isolated, after bilateral nephrectomy, and perfused according to the technique described by Schure and Maack.
(§3) The kidneys thus isolated were perfused by means of a pulsating pump both with a solution containing cyclosporin A or tacrolimus and with a solution containing propionyl L-carnitine or glycine or the two components in combination.
Arterial pressure on the perfused kidney was measured by means of a manometer connected up to the renal artery.

The test system of data set [3] is isolated, perfused rat kidneys. The experiment in a line: Histamine and endothelin-1 release induced by cyclosporin-A or tacrolimus in isolated, perfused rat kidneys. The note with it: for % inhibition of release, endothelin-1 / % inhibition of release, histamine: treatment 5 mg/L each, after 1 min perfusion.
From the text: as §1, §2, §3
(§4) A […] method was used to measure both AAP and NAG on the renal venous flow. Histamine and endothelin-1 were measured with a colorimetric method or with RIA.

The subject of data set [4] is isolated, perfused rat kidneys. The experiment in a line: Renal tubular damage evaluated by release of alanine aminopeptidase (AAP) and N-acetylglucosaminidase (NAG) in isolated, perfused rat kidneys. Particulars: treatment 5 mg/L each, after 5 min perfusion.
From the text: as §1, §2, §3, §4

Data set [5] concerns isolated, perfused rat kidneys. The experiment in a line: Glomerular and tubular morphometric abnormalities induced by cyclosporin-A in perfused rat kidney. Particulars: for Morphometric indices, tubular ID/ED / Morphometric indices, glomerular CD/BD: kidneys perfused with cyclosporin-A 2 mg/L, alone or with treatment 5 mg/L; for Morphometric indices, tubular ID/ED: control 0.36 ± 0.03; for Morphometric indices, glomerular CD/BD: control 0.93 ± 0.09.
From the text: as §2, §3
The parameters observed on the kidneys thus perfused were the capillary diameters (CD) and the Bowman's capsule diameters (BD) and equally the external and internal diameter (ID) and also the diameter at the level of the basal membrane (ED) of at least 20 proximal tubules.

Data set [6] relates to isolated, perfused rat kidneys. Kind of data set: Reduction of renal ATP induced by cyclosporin-A. Particulars: for ATP: kidneys perfused with cyclosporin-A, alone or with treatment, control 6.70 ± 0.51. On the procedure:
as §2, §3
(§5) Lipid peroxidation was measured on samples of renal cortex as described by Longoni (Longoni B., Int. J. Tissue React., 21.7.1997-Lowry O. H., J. Biol. Bioch., 193:265, 1951) and ATP concentrations were determined according to the method described by Sumpio (Sumpio B. E., Am. J. Physiol., 247, PT2, 1047, 1984).

Data set [7] has as its system isolated, perfused rat kidneys. Kind of data set: Renal lipoperoxidation induced by cyclosporin-A (MDA + 4-HDA assay). Particulars: for MDA + 4-HDA: renal cortex, kidneys perfused with cyclosporin-A, alone or with treatment, control 2.1 ± 0.91. On the procedure: as §2, §3, §5
In data set [8] the test system is isolated and perfused rat kidney. Kind of data set: Tests of cyclosporin-A toxicity in isolated and perfused rat kidney, overall assessment. The note with it: in words.
From the text: as §1, §2, §3

For data set [9], the system named is Sprague Dawley rats. Particulars: rat, in vivo, 500 mg/kg.
The subject of data set [10] is Sprague Dawley rats. Kind of data set: Toxicology tests, acute i.p./oral and prolonged oral administration.
Setting [11] is: induced by cyclosporin-A 2 mg/L.

Turning to `ClC(Cl)(Cl)Cl` [CCl4, carbon tetrachloride, reference compound], in data set [1], the “Alanine aminotranferase activity (ALT)” value is on record as 105.4 ± 3.8 U/L and the Triglycerides came out at 26.5 ± 0.11 mg/g.

Regarding `NCC(=O)O` [Glycine, glycine], the inhibition (commonly the relative decrease from the control value, in per cent) at 5 µg/mL in [2] (5 min, hypertension induced by cyclosporin-A 2 mg/L, 5 min, read-out: % inhibition of hypertensive effect after 5 min) worked out at 6.3 ± 0.9%; in data set [2] (5 min, hypertension induced by tacrolimus 400 μg/L, 5 min, read-out: % inhibition of hypertensive effect after 5 min), 4.8 ± 7.1%; in data set [2] (20 min, hypertension induced by cyclosporin-A 2 mg/L, 20 min, read-out: % inhibition of hypertensive effect after 20 min) it was 6.8 ± 0.3%; in [2] (20 min, hypertension induced by tacrolimus 400 μg/L, 20 min, read-out: % inhibition of hypertensive effect after 20 min), 7.4 ± 0.9%. Also, the “action on the release of vasoactive substances such as histamine and endothelin” value in data set [3] (cyclosporin A, in words) is “not significantly detectable”. In addition, the “% inhibition of release, endothelin-1” value in data set [3] (setting [11]) is on record as 8.8 ± 0.9%; in data set [3] (induced by tacrolimus 400 μg/L) it was 6.5 ± 0.7%. In addition, the “% inhibition of release, histamine” value in data set [3] (setting [11]) is given as 10.4 ± 1.1%; in [3] (induced by tacrolimus 400 μg/L), 7.5 ± 0.8%. For the same compound, the entries for the “% inhibition of release, AAP” value in data set [4] (setting [11]) and in data set [4] (induced by tacrolimus 400 μg/L) were 14.2 ± 0.9% and 18.5 ± 1.1%, respectively. Moreover, the “% inhibition of release, NAG” value amounted to 16.5 ± 0.6% in data set [4] (setting [11]) and 17.2 ± 0.9% in data set [4] (induced by tacrolimus 400 μg/L). Besides, the “action on the morphological damage induced by cyclosporin A” value in data set [5] (in words) is on record as “not significantly detectable”. Also, the “Morphometric indices, tubular ID/ED” value in data set [5] is 0.66 ± 0.5. The “Morphometric indices, glomerular CD/BD” value in [5] came out at 0.80 ± 0.5. Moreover, in data set [6] (cyclosporin A, in words), the “action on the reduction in intracellular ATP” value is listed as “not significantly detectable”. For the same compound, in [6], the ATP is 4.56 ± 0.49 nM/g tissue. The “effect on the lipid peroxidation activity induced by cyclosporin-A” value in data set [7] (in words) is reported as “detectable protective effect”. In addition, the “MDA + 4-HDA” value in [7] amounted to 4.8 ± 0.41 nmol/mg protein. Further, the “Alanine aminotranferase activity (ALT)” value in data set [1] was 90.2 ± 8.6 U/L. Besides, in data set [1], the Triglycerides is reported as 22.2 ± 2.1 mg/g. For the same compound, the “protection of the kidney against morphological/vascular and cellular biochemical damage induced by cyclosporin-A or tacrolimus” value in data set [8] is “much less effective”. Further, the “tolerability of prolonged oral administration” value in data set [9] is “well tolerated”. Also, the “mortality or other sign of toxic effects” value in data set [10] (intraperitoneal, 0.5 g/kg each) is on record as “without any mortality being observed”; in data set [10] (oral, 1 g/kg each), “without any mortality being observed”.

As to `CCC(=O)O[C@H](CC(=O)[O-])C[N+](C)(C)C` [Propionyl L-carnitine, propionyl L-carnitine], the “% inhibition of hypertensive effect after 5 min” value stood at 18.2 ± 1.5% in [2] (hypertension induced by cyclosporin-A 2 mg/L, 5 min) and 22.5 ± 2.3% in [2] (hypertension induced by tacrolimus 400 μg/L, 5 min). Moreover, the “% inhibition of hypertensive effect after 20 min” value in [2] (hypertension induced by cyclosporin-A 2 mg/L, 20 min) stood at 28.4 ± 2.1%; in data set [2] (hypertension induced by tacrolimus 400 μg/L, 20 min) it was 30.7 ± 2.9%. Also, the “% inhibition of release, endothelin-1” value in [3] (setting [11]) is listed as 41.2 ± 3.8%; in [3] (induced by tacrolimus 400 μg/L) it was 34.7 ± 2.7%. In addition, the “% inhibition of release, histamine” value stood at 39.5 ± 4.1% in data set [3] (setting [11]) and 41.5 ± 3.9% in data set [3] (induced by tacrolimus 400 μg/L). Besides, the results for the “% inhibition of release, AAP” value in data set [4] (setting [11]) and in data set [4] (induced by tacrolimus 400 μg/L) were 32.8 ± 3.1% and 35.1 ± 2.9%, respectively. Besides, the “% inhibition of release, NAG” value in data set [4] (setting [11]) turned out to be 30.5 ± 2.6%; in data set [4] (induced by tacrolimus 400 μg/L) it was 30.8 ± 2.5%. In addition, the “Morphometric indices, tubular ID/ED” value in [5] was 0.40 ± 0.06. Moreover, the “Morphometric indices, glomerular CD/BD” value in data set [5] is given as 0.86 ± 0.7. Further, the ATP in data set [6] is reported as 6.05 ± 0.61 nM/g tissue. In data set [7], the “MDA + 4-HDA” value is listed as 4.2 ± 0.39 nmol/mg protein. The “Alanine aminotranferase activity (ALT)” value in data set [1] came out at 75.8 ± 5.5 U/L. In data set [1], this compound showed a Triglycerides of 18.8 ± 1.8 mg/g. For the same compound, the “protection of the kidney against morphological/vascular and cellular biochemical damage induced by cyclosporin-A or tacrolimus” value in data set [8] is reported as “effective in protecting the kidney”. For the same compound, the “mortality or other sign of toxic effects” value in data set [10] (intraperitoneal, 0.5 g/kg each) is given as “without any mortality being observed”; in data set [10] (oral, 1 g/kg each) it was “without any mortality being observed”. For the same compound, the “tolerability of prolonged oral administration” value in data set [10] (oral 500 mg/kg each for 20 days consecutively, weight gain and blood chemistry without toxic abnormalities) is listed as “well tolerated”.

As to cyclosporin-A [reference compound], in [5], the “Morphometric indices, tubular ID/ED” value stood at 0.75 ± 0.08 and the “Morphometric indices, glomerular CD/BD” value is listed as 0.78 ± 0.02. Besides, the ATP in data set [6] turned out to be 4.51 ± 0.41 nM/g tissue. In addition, in [7], the “MDA + 4-HDA” value came out at 6.5 ± 0.52 nmol/mg protein.
